{"source": "patent US10669288B2", "about": "“Lanthanide complexes based on triethylenetetramine-N,N,N′,N″,N′″,N′″-hexaacetic acid derivatives” (UNIVERSITE D'ORLEANS, priority 2017, dated 2020)", "key": {"[1]": {"test": "Photophysical properties (absorption, emission, luminescence lifetime, quantum yields) in solution", "assay_type": "physicochemical", "text": "L1 ligand and L1Nd^3+ complex (Example 2) both have broad absorption bands which extend over a wavelength range having values as high as 750 nm with maxima centered at ˜615 and ˜670 nm and molar absorption coefficients up to 5·10^3 M^−1 cm^−1. Upon excitation of the low energy absorption bands located on L1 and on the L1Nd^3+ complex, it is possible to observe broadband emission signals from the chromophore ligand centered at ˜690 nm with a shoulder at ˜740 nm. The complex L1Nd^3+, when excited at a wavelength of 650 nm, produces a narrow emission band with a maximum at 1064 nm which is characteristic of the electronic structure of Nd^3+ resulting from the transition ^4F3/2→^4I11/2. […] As a result, ligand L1 and complex L1Nd^3+ both have excitation and emission wavelengths included in the domain of the biological diagnostic window (FIG. 1).\nThe quantitative luminescence parameters (luminescence lifetime (i) and luminescence quantum yields centered on L1-(QL) and on Nd^3+-(QNd)) determined on the L1Nd^3+ complex are summarized in Table 3.1.\nRelatively short life time values T (in the nanosecond range) and low QNd quantum yields have been measured for the near-infrared emission of Nd^3+ in comparison with the highest corresponding values that have been published to date. […]\nThe quantum yield of the emission from the ligand is lower by a ratio of 30% for the Nd^3+ complex relative to the L1 ligand. […] It is important to point out that narrow Nd^3+ emission band positions are unaffected by microenvironmental changes, which is a major advantage over the “wavelength” indocyanine green commercial fluorophore. of similar excitation (Fernandez-Fernandez, R. Manchanda, T. Lei, D. A. Carvajal, Y. Tang, S. Z. Razza Kazmi, A. J. McGoron, Comparative study of the optical and heat generation properties of IR820 and indocyanine green, Molecular imaging, 11 (2012) 99 and S. Mordon, J. M. Devoisselle, S. Soulie-Begu, T. Desmetter, Indocyanine green: Physicochemical factors affecting its fluorescence in vivo, Microvascular Research, 55 (1998) 146-152)."}, "[2]": {"test": "Photostability in solution under continuous illumination at 630 nm", "assay_type": "physicochemical", "conditions": "3 h continuous illumination at 630 nm; 100 μM, HEPES pH 7.5, room temperature", "text": "The photostabilities of L1 and L1Nd^3+ were studied under continuous illumination at 630 nm (FIG. 2)."}}, "note": "Several values for one entry are separate records, joined by “and”; a condition that tells them apart may be missing. Equal values may be shown once."}
{"smiles": "NCCNc1ccc(NCCNC(=O)CN(CCN(CCN(CCN(CC(=O)O)CC(=O)O)CC(=O)O)CC(=O)O)CC(=O)O)c2c1C(=O)c1c(O)ccc(O)c1C2=O", "note": "[Compound L1, 3-(2-((2-((4-((2-aminoethyl)amino)-5,8-di hydroxy-9,10-dioxo-9,10-dihydroanthracen-1-yl)aminoacid)ethyl)amino)-2-oxoethyl)-6,9,12-tris(carboxymethyl)-3,6,9,12-tétraazatétradécane-1,14-dioic]", "values": [{"measurement": "absorption maxima", "setting": "[1]; broad absorption bands extending to 750 nm, HEPES buffer", "result": "~615 nm and ~670 nm"}, {"measurement": "QL(%) (quantum yield centered on L1)", "setting": "[1]; excitation at 620 nm, emission collected 640-850 nm, 100 μM, pH = 7.5, room temperature", "result": "0,257(5) %"}, {"measurement": "broadband emission from the chromophore ligand, centre", "setting": "[1]; excitation of low energy absorption bands, shoulder at ~740 nm", "result": "~690", "unit": "nm"}, {"measurement": "loss of initial emission intensity", "setting": "[2]", "result": "~70", "unit": "%"}]}
